A short description of the assay: Inhibition of full-length (FL)-PRMT5:MEP50 enzyme complex (unknown origin) expressed in Sf21 cells assessed as reduction in methylation activity using the N-terminus of H4 histone derived substrate peptide H4R3(Me1) by PRMT5:MEP50 biochemical assay. More on the design: species or system Homo sapiens.

The source of these data is ChEMBL document CHEMBL5143710, “Design and synthesis of unprecedented 9- and 10-membered cyclonucleosides with PRMT5 inhibitory activity” (Bioorg Med Chem, 2022).

What is called IC50 is the midpoint of a concentration-inhibition curve.

Consider `Nc1ncnc2c1nc1n2[C@@H]2O[C@@H]([C@@H](O)[C@H]2O)[C@@H](c2ccc(F)c(F)c2)CCN1`, for which the IC50 is 5.7 µM. Turning to `Nc1ncnc2c1nc1n2[C@@H]2O[C@@H]([C@@H](O)[C@H]2O)[C@@H](c2ccc(Cl)cc2)OCCO1`, the IC50 is 1 µM.
